Experiments:
[1] = human gut metagenome, 24 h, 2 µM
[2] = The drug is tested on Z-008 corresponding to metagenome with ENA study accession number: PRJEB37062 and ENA sample accession number: ERS12561808 for biotransformation under anaerobic condition. The drug concentrations were measured over 9 timepoints collected between 0 and 24 hours of incubation by liquid-chromatography-coupled mass spectrometry (LC–MS); conditions: 2 µM
[3] = (§1) The drug is tested on Z-002 corresponding to rabbit gut metagenome with ENA study accession number: PRJEB37062 and ENA sample accession number: ERS12561802 for biotransformation under anaerobic condition. The drug concentrations were measured over 9 timepoints collected between 0 and 24 hours of incubation by liquid-chromatography-coupled mass spectrometry (LC–MS); conditions: 2 µM
[4] = human gut metagenome, 24 h, 2 µM; remark: listed apart in the source
[5] = human gut metagenome, 24 h, 2 µM; remark: listed apart in the source
[6] = as §1, with “WLS-027” for “Z-002”, “human” for “rabbit”, “ERS12561744” for “ERS12561802”; conditions: 2 µM
[7] = human gut metagenome, 24 h, 2 µM; remark: listed apart in the source
[8] = as §1, with “Z-006” for “Z-002”, “mouse” for “rabbit”, “ERS12561806” for “ERS12561802”; conditions: 2 µM
[9] = human gut metagenome, 24 h, 2 µM; remark: listed apart in the source
[10] = human gut metagenome, 24 h, 2 µM; remark: listed apart in the source
[11] = as §1, with “WLS-220” for “Z-002”, “human” for “rabbit”, “ERS12561769” for “ERS12561802”; conditions: 2 µM
[12] = human gut metagenome, 24 h, 2 µM; remark: listed apart in the source
[13] = as §1, with “WLS-170” for “Z-002”, “human” for “rabbit”, “ERS12561762” for “ERS12561802”; conditions: 2 µM
[14] = as §1, with “WLS-039” for “Z-002”, “human” for “rabbit”, “ERS12561746” for “ERS12561802”; conditions: 2 µM
[15] = human gut metagenome, 24 h, 2 µM; remark: listed apart in the source
[16] = as §1, with “WLS-069” for “Z-002”, “human” for “rabbit”, “ERS12561748” for “ERS12561802”; conditions: 2 µM
[17] = as §1, with “Z-029” for “Z-002”, “rat” for “rabbit”, “ERS12561828” for “ERS12561802”; conditions: 2 µM
[18] = human gut metagenome, 24 h, 2 µM; remark: listed apart in the source
[19] = as §1, with “Z-011” for “Z-002”, “mouse” for “rabbit”, “ERS12561811” for “ERS12561802”; conditions: 2 µM
[20] = as §1, with “Z-014” for “Z-002”, “rat” for “rabbit”, “ERS12561814” for “ERS12561802”; conditions: 2 µM
Also: call rule not given here.

Row | SMILES | Bacterial Biotransformation [1] | Bacterial Biotransformation [2] | Bacterial Biotransformation [3] | Bacterial Biotransformation [4] | Bacterial Biotransformation [5] | Bacterial Biotransformation [6] | Bacterial Biotransformation [7] | Bacterial Biotransformation [8] | Bacterial Biotransformation [9] | Bacterial Biotransformation [10] | Bacterial Biotransformation [11] | Bacterial Biotransformation [12] | Bacterial Biotransformation [13] | Bacterial Biotransformation [14] | Bacterial Biotransformation [15] | Bacterial Biotransformation [16] | Bacterial Biotransformation [17] | Bacterial Biotransformation [18] | Bacterial Biotransformation [19] | Bacterial Biotransformation [20]
1 | CC(=O)CC(c1ccccc1)c1c(O)c2ccccc2oc1=O (stereo not given) [WARFARIN] | Compound metabolized | Compound NOT metabolized | Compound metabolized | Compound metabolized | Compound metabolized | Compound metabolized | Compound metabolized | Compound metabolized | Compound metabolized | Compound metabolized | Compound metabolized | Compound metabolized | Compound metabolized | Compound NOT metabolized | Compound metabolized | Compound metabolized | Compound NOT metabolized | Compound metabolized | Compound NOT metabolized | Compound metabolized
2 | Cc1ccc(-c2nc3ccc(C)cn3c2CC(=O)N(C)C)cc1 [ZOLPIDEM] | Compound NOT metabolized | Compound NOT metabolized | Compound metabolized | Compound metabolized | Compound NOT metabolized | Compound NOT metabolized | Compound metabolized | Compound NOT metabolized | Compound NOT metabolized | Compound metabolized | Compound metabolized | Compound metabolized | Compound NOT metabolized | Compound NOT metabolized | Compound metabolized | Compound NOT metabolized | Compound NOT metabolized | Compound metabolized | Compound NOT metabolized | Compound NOT metabolized

— ChEMBL document CHEMBL5724914, “Linking interpersonal differences in gut microbiota composition and drug biotransformation activity” (2024)
